Source: ChEMBL document CHEMBL1201862, “PubChem BioAssay data set” (2004)
Calls of active or inactive are those of the source.

Tests used:
[1] = target: T1, Corticotropin-releasing factor receptor 2/Corticotropin-releasing factor-binding protein (Homo sapiens, UniProt P24387+Q13324); experiment: activators of CRF receptor 2 with binding protein – uHTS hits, confirmation (AID 602473); assay type: functional; conditions: read-out: EC50_Mean
T1 sequence (Q13324 whole entry): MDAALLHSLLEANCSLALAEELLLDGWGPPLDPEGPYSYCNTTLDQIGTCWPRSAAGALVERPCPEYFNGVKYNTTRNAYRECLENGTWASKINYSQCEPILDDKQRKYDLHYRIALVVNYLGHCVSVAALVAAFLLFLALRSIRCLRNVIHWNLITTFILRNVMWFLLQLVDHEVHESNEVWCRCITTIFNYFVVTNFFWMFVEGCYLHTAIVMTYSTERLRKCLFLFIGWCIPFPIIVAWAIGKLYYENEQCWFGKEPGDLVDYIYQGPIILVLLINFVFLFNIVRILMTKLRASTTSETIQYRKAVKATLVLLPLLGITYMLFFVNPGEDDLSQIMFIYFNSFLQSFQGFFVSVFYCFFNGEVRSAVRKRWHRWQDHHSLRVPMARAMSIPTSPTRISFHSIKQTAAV
T1 sequence (P24387 whole entry): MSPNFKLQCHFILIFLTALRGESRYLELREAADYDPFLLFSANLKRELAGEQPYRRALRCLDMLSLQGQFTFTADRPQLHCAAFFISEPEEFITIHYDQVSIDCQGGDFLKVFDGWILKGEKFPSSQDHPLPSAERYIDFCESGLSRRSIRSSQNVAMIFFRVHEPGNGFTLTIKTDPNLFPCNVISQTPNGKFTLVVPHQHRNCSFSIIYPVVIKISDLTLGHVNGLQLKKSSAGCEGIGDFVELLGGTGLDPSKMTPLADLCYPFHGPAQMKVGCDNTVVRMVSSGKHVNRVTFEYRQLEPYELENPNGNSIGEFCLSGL

[2] = target: T2, Voltage-dependent T-type calcium channel subunit alpha-1H (Homo sapiens, UniProt O95180); assay type: functional;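 also: channel activity triggered by adding a high calcium stimulation buffer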
[3] = target: T1, Corticotropin-releasing factor receptor 2/Corticotropin-releasing factor-binding protein; experiment: Dose Response confirmation of uHTS hits for small molecule antagonists of the CRF-binding protein and CRF-R2 receptor complex.; assay type: functional; conditions: read-out: IC50_Mean
[4] = protection from phage-mediated lysis, alamar blue read-out – E. coli UTI89, K1F phage, bacterial capsule biogenesis inhibitors (AID 488966); assay type: functional
[5] = target: T3, Voltage-gated N-type calcium channel alpha-1B subunit/Amyloid beta A4 precursor protein-binding family A member 1 (Homo sapiens, UniProt Q00975+Q02410); experiment: disruptors of Mint-PDZ/N-type channel peptide interaction – biochemical, HTRF, set 2, SAR follow-up (AID 434980); assay type: functional
[6] = target: T3, Voltage-gated N-type calcium channel alpha-1B subunit/Amyloid beta A4 precursor protein-binding family A member 1; experiment: disruptors of Mint-PDZ/N-type channel peptide interaction – biochemical, HTRF, SAR follow-up (AID 2489); assay type: functional
[7] = target: G-protein coupled receptor 55 (Homo sapiens, UniProt Q9Y2T6); experiment: inhibition of LPI-stimulated GPR55 beta-arrestin translocation – imaging, U2OS, beta-arrestin-GFP, LPI agonist, primary screen (AID 2013); assay type: functional;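 also: antagonist potency measured as reduced agonist-driven arrestin aggregation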
[8] = target: T4, Delta-type opioid receptor (Homo sapiens, UniProt P41143); experiment: DOR agonists, SAR follow-up, image-based (AID 2370); assay type: functional
[9] = target: T4, Delta-type opioid receptor; experiment: delta opioid receptor blockers – image-based, SAR follow-up (AID 2357); assay type: functional
[10] = target: T5, Mu-type opioid receptor (Homo sapiens, UniProt P35372); experiment: mu opioid receptor activators, image-based, SAR follow-up (AID 2352); assay type: functional
[11] = target: T6, Kappa-type opioid receptor (Homo sapiens, UniProt P41145); experiment: kappa opioid receptor activation potency – imaging, image-based, SAR follow-up (AID 2359); assay type: functional
[12] = target: T6, Kappa-type opioid receptor; experiment: kappa opioid receptor blockers, image-based, SAR follow-up (AID 2348); assay type: functional
[13] = target: T6, Kappa-type opioid receptor; experiment: kappa opioid receptor blockers, cell-based, luminescence, beta-arrestin, SAR follow-up (AID 2285); assay type: functional
[14] = target: T5, Mu-type opioid receptor; experiment: mu opioid receptor blockers – image-based, SAR follow-up (AID 2420); assay type: functional;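 also: compounds added before stimulation of receptor with agonist DAMGO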
[15] = cells; assay type: functional
[16] = HepG2 cell cytotoxicity, dose response, cytotoxicity control for non-replicating M. tuberculosis project (AID 489018); assay type: functional; conditions: Mycobacterium tuberculosis
[17] = THP-1 cell cytotoxicity, dose response, cytotoxicity control for non-replicating M. tuberculosis project (AID 489025); assay type: functional
[18] = target: Female germline-specific tumor suppressor gld-1 (Caenorhabditis elegans, UniProt Q17339); experiment: blockers of GLD-1/TGE RNA complex formation – biochemical, fluorescence polarization, C. elegans, dose response (AID 2802);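 also: fluorescence polarization of labeled TGE RNA bound by purified gld-1 protein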
[19] = target: Protein Rev (Human immunodeficiency virus type 1 group M subtype B (isolate HXB2)(HIV-1), UniProt P04618); experiment: blockers of HIV Rev/RRE RNA complex – biochemical, fluorescence polarization, HIV-1, dose response (AID 434976); set-up: species or system Human immunodeficiency virus 1
[20] = target: Intestinal-type alkaline phosphatase (Homo sapiens, UniProt P09923); experiment: Dose Response confirmation of uHTS hits from a small molecule inhibitors of human intestinal alkaline phosphatase via a luminescent assay. [Related pubchem assays (depositor defined):AID2544, AID2574]; assay type: functional
[21] = target: T2, Voltage-dependent T-type calcium channel subunit alpha-1H; experiment: human CACNA1H calcium influx blockade – cell-based, synthetic library set 1, calcium flux (AID 493022); assay type: functional
[22] = target: Tumor necrosis factor (Homo sapiens, UniProt P01375); experiment: analog potency on TNFa NF-kB signaling – cell-based, revised, SAR follow-up (AID 2337); assay type: functional
[23] = target: T7, Nucleotide-binding oligomerization domain-containing protein 2 (Homo sapiens, UniProt Q9HC29); experiment: inhibition of NOD2-driven NF-kB reporter – cell-based, luminescence, uHTS, HEK293 (AID 1566); assay type: functional
[24] = target: T7, Nucleotide-binding oligomerization domain-containing protein 2; experiment: PubChem AID 2334; assay type: functional
[25] = target: T8, Nucleotide-binding oligomerization domain-containing protein 1 (Homo sapiens, UniProt Q9Y239); experiment: blockers of NOD1 pathway activity – revised, SAR follow-up (AID 2333); assay type: functional
T8 sequence (Q9Y239 whole entry): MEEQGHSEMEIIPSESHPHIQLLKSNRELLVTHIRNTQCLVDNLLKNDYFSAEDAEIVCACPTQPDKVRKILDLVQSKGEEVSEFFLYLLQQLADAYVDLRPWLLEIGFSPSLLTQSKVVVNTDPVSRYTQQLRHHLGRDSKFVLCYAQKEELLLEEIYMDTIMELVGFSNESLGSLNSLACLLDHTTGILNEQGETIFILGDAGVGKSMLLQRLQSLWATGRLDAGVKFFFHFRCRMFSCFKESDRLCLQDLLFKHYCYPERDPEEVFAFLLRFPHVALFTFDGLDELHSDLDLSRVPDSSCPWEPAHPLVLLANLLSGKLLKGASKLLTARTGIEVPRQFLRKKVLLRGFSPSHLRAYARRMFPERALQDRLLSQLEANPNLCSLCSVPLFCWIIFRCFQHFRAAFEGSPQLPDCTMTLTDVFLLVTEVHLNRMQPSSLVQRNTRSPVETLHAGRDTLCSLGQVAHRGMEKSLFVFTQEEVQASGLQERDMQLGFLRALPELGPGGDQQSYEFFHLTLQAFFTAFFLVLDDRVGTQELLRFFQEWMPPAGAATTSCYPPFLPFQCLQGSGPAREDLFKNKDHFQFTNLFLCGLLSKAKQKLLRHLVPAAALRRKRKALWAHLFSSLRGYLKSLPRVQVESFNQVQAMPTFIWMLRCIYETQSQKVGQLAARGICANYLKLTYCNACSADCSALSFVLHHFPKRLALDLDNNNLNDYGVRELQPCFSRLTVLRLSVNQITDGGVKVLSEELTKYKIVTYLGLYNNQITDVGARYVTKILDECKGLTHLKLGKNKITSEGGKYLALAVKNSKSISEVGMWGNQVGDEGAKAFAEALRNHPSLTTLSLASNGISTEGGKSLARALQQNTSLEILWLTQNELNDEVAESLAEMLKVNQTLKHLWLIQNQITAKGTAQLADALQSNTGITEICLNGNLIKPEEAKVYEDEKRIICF

T6 sequence (P41145 whole entry): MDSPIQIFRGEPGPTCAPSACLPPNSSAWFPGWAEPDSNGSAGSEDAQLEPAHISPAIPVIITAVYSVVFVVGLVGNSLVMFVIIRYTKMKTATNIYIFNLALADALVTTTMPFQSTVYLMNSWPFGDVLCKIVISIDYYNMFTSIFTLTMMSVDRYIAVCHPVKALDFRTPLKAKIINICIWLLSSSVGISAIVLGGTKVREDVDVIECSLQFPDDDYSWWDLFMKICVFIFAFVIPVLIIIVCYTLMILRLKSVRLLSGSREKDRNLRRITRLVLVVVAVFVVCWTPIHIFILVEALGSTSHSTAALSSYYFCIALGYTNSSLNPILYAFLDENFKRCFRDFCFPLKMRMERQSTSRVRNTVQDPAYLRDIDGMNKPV
T3 sequence (Q00975 whole entry): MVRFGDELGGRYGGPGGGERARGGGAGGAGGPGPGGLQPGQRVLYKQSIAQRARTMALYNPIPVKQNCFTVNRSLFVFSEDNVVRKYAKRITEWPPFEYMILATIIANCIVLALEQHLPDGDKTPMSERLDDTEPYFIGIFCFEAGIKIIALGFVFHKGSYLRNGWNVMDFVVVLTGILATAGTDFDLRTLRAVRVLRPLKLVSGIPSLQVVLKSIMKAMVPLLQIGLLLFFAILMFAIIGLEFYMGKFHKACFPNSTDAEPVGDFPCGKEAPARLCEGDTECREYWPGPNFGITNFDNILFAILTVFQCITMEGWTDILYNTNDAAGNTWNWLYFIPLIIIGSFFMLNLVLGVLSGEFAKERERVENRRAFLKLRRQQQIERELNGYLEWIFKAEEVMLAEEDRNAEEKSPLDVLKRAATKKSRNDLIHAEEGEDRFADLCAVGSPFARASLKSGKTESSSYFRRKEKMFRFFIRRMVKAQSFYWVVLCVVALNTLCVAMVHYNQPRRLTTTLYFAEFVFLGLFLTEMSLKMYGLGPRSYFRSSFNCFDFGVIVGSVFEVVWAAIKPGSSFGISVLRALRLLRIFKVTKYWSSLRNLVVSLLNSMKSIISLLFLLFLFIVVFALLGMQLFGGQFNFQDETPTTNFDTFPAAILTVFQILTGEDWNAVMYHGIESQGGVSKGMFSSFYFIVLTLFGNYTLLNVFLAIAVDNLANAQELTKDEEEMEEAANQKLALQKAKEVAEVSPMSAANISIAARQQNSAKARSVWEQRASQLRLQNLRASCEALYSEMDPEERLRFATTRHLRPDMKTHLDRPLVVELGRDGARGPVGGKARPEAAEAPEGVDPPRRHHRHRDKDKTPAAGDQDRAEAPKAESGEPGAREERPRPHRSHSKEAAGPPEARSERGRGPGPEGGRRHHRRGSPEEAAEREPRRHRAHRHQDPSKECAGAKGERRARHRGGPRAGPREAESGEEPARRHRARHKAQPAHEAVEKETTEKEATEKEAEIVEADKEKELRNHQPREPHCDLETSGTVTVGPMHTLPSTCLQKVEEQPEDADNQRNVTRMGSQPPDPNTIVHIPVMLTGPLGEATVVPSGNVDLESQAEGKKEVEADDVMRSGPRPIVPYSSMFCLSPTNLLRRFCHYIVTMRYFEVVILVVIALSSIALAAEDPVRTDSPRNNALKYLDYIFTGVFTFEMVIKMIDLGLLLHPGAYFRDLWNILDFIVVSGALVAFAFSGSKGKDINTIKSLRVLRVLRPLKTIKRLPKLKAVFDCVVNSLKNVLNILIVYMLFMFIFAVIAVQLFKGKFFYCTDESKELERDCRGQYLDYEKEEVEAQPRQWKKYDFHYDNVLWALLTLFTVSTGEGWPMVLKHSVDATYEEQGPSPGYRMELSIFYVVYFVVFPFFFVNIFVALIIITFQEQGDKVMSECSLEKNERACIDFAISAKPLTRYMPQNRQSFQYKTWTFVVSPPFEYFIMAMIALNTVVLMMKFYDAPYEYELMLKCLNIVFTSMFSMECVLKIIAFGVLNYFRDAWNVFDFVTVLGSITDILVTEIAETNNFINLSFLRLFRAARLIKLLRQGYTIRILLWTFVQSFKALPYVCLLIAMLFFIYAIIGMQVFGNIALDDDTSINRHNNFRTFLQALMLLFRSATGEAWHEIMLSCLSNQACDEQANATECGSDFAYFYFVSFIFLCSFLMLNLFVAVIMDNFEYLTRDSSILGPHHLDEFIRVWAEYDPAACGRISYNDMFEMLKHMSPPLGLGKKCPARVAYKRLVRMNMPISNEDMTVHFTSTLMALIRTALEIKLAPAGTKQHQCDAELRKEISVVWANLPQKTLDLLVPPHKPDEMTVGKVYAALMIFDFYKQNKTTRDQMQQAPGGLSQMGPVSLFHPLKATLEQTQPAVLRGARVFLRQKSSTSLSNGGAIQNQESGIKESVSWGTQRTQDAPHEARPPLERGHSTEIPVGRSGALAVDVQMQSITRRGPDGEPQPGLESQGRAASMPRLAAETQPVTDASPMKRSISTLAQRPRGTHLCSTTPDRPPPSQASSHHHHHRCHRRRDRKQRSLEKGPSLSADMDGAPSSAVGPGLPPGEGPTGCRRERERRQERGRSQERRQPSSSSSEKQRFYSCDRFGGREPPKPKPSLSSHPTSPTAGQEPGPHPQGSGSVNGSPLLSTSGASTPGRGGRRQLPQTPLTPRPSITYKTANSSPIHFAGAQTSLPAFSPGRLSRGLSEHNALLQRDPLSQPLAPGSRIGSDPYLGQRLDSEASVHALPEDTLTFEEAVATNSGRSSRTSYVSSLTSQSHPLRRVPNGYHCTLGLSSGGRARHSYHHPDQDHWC
T3 sequence (Q02410 whole entry): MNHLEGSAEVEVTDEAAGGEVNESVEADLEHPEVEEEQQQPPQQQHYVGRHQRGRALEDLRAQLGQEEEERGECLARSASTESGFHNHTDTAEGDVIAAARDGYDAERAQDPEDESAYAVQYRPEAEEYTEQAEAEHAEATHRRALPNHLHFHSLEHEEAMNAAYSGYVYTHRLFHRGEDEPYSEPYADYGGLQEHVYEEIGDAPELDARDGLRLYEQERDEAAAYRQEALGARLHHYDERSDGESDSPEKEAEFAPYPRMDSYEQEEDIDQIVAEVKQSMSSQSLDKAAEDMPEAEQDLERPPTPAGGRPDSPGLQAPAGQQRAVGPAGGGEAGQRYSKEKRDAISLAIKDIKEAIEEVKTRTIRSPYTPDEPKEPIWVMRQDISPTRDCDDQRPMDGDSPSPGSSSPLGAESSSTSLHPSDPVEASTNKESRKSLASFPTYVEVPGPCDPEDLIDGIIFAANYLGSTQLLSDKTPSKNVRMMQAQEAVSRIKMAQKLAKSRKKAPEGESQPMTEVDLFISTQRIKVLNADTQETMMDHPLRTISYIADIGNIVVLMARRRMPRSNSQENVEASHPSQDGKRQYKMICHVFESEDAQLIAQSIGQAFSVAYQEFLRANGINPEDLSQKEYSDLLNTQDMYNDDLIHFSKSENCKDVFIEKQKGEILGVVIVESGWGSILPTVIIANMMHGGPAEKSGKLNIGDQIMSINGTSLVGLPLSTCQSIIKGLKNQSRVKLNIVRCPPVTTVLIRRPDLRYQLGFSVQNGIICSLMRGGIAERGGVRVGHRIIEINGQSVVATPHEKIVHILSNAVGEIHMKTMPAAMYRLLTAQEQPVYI
T4 sequence (P41143 whole entry): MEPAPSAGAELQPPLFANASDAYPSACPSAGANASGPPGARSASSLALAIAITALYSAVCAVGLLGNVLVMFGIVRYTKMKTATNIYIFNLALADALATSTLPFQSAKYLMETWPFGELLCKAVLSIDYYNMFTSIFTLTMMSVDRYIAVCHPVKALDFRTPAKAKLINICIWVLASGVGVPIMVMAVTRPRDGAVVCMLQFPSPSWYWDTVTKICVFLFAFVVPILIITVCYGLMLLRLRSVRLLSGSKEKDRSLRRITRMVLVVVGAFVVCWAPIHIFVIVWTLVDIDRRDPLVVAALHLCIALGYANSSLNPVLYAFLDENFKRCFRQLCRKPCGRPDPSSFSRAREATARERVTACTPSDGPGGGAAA
T7 sequence (Q9HC29 whole entry, the tested form may be a part): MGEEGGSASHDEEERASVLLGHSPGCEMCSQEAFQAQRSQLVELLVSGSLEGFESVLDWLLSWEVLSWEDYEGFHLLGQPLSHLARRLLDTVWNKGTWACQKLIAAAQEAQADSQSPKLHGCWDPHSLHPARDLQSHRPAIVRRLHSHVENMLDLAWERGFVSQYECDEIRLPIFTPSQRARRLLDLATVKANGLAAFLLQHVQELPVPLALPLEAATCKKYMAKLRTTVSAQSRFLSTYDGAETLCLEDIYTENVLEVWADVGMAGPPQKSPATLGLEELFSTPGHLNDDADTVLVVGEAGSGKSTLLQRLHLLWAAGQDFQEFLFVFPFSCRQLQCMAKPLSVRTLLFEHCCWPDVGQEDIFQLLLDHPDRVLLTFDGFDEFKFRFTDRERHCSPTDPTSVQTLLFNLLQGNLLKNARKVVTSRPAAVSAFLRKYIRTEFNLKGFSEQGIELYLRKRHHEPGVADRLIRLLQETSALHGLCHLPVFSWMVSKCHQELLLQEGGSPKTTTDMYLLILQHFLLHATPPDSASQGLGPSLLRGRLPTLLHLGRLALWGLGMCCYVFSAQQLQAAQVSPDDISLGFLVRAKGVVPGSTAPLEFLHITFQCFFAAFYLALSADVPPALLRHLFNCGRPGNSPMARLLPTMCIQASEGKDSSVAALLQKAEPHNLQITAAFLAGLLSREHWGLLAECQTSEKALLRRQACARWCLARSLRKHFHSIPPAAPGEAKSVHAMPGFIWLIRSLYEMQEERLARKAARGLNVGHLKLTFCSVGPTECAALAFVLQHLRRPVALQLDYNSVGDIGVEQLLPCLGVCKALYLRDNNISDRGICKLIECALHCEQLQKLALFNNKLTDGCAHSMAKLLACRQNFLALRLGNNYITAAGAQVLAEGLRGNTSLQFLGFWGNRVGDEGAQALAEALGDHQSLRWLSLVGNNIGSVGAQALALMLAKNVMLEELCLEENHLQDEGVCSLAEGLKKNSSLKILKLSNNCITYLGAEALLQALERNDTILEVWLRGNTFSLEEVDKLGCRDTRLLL
Sequence of Protein Rev (P04618 whole entry): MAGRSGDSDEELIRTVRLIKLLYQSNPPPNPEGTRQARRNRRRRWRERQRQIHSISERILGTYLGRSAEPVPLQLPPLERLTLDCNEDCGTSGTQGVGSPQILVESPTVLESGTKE

SMILES: COc1ccc(C(c2nnnn2Cc2ccccc2)N2CCN(c3ccccc3)CC2)cc1 (stereo not given)
- EC50 [1]: > 53 µM (inactive)
- EC50 [2]: 3.34 µM (active)
- IC50 [3]: > 47.1 µM (inactive)

SMILES: CCOc1ccc(NC(=O)C2CCC(C)(C(=O)O)C2(C)C)cc1 (stereo not given)
- IC50 [4]: > 300 µM (active)

SMILES: CC12C=CC(C)(O1)C1C(=O)N(c3ccccc3)C(=O)C12 (stereo not given)
- IC50 [5]: 10.5 µM (active)
- IC50 [6]: 11.7 µM (active)

SMILES: Nc1nc(C23CC4CCC(CC(C4)C2)C3)cs1
- IC50 [7]: 7.48 µM (active)

SMILES: Cc1ccc(-n2[nH]c(C)c(C=Nc3ccc(Cl)c4cccnc34)c2=O)cc1
- EC50 [8]: 14.8 µM (inactive)
- IC50 [9]: > 32 µM (inactive)
- EC50 [10]: 2.73 µM (active)
- EC50 [11]: 3.85 µM (active)
- IC50 [12]: > 32 µM (inactive)
- IC50 [13]: > 10 µM (inactive)
- IC50 [14]: > 32 µM (inactive)

SMILES: Cc1ccc(-n2cc(CNCCc3cscn3)c(-c3ccc(F)cc3)n2)cc1
- IC50 [15]: 12.7 µM (active)
- CC50 [16]: 16.5 µM (active)
- CC50 [17]: 23.1 µM (active)

SMILES: CCN(CC)S(=O)(=O)c1ccc(N2CCCC2)c(NS(=O)(=O)c2ccc(F)cc2)c1
- IC50 [18]: 4.04 µM (active)
- IC50 [19]: > 75.4 µM (not active)

SMILES: c1ccc(-c2nnc(CN3CCC4(CC3)OCCO4)o2)cc1
- IC50 [20]: > 100 µM (inactive)

SMILES: O=C(COc1ccc(F)cc1)Nc1nnc(-c2ccc3c(c2)CCCC3)o1
- EC50 [21]: 2.1 µM (active)

SMILES: Cc1nn(-c2ccccc2)c2nc(C(Cl)(Cl)Cl)[nH]c(=O)c12
- IC50 [22]: 6.62 µM (active)
- EC50 [23]: 10.5 µM (active)
- IC50 [24]: 5.9 µM (active)
- IC50 [25]: 4.5 µM (active)
